In article PMC8875242, “Evaluation of the Potency of Anti-HIV and Anti-HCV Drugs to Inhibit P-Glycoprotein Mediated Efflux of Digoxin in Caco-2 Cell Line and Human Precision-Cut Intestinal Slices” (Pharmaceuticals, 2022):
Counter-ions that a name gives are not always drawn. Like-named read-outs stand apart in the source and are kept apart here. One block for each molecule: values may come before it.

Columns and labels:
[1] = molecular target: T1, ABCB1 (Homo sapiens, UniProt P08183); experiment: Bidirectional transport of [^3H]-digoxin across Caco-2 monolayers
T1 sequence (P08183 whole entry): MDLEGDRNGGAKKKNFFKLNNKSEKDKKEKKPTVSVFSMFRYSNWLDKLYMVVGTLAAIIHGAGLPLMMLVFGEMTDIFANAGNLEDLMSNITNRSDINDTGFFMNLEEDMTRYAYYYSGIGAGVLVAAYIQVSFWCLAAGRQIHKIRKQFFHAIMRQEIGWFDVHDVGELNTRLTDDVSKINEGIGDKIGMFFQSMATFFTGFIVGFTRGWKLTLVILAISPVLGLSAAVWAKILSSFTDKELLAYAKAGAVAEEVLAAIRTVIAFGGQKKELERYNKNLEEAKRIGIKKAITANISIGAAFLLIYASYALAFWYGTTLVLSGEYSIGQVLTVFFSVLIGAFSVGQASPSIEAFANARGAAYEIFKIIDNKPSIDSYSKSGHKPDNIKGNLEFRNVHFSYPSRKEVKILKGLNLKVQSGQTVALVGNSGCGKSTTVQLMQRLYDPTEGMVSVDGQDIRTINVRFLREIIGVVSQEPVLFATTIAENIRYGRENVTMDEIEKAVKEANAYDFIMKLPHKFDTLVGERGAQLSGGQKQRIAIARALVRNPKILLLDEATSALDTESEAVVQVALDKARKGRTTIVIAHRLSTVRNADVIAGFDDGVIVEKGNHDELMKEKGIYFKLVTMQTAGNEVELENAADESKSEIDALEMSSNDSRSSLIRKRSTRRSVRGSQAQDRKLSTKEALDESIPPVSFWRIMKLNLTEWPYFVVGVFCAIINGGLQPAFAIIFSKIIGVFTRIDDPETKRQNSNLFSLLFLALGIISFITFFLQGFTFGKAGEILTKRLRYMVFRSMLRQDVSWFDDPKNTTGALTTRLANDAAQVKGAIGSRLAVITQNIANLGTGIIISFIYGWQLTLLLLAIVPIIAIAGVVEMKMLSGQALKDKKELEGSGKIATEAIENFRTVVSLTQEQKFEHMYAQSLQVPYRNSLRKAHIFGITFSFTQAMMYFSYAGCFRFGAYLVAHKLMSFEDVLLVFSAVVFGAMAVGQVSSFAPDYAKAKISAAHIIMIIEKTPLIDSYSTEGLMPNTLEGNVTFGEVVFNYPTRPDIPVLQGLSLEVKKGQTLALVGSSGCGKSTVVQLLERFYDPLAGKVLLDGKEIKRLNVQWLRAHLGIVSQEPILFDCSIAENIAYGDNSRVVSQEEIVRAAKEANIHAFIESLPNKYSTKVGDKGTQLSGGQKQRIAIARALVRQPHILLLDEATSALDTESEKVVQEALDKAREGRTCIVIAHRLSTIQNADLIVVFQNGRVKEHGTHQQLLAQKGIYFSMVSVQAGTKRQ
Description: Caco-2 cells were seeded at a density of 3 × 10^5 cells per insert and cultured for 21 days in a standard cultivation medium containing 1% penicillin–streptomycin. The medium was changed every other day, during which the transepithelial electrical resistance (TEER) across the cell monolayers was measured using a Millicell-ERS instrument (Millipore Corporation, Bedford, MA, USA). […] For the bidirectional permeability assay, a Hanks’ balanced salt solution buffer was used. The pH in the A compartment was adjusted to 6.5 using a methanesulfonic acid solution, while that in the B compartment was adjusted to 7.4 using a HEPES solution [34, 80]. The volumes used were 0.5 mL and 1.5 mL in compartments A and B, respectively. To improve the reproducibility of the results, the receiver compartment always contained 1% bovine serum albumin, as previously recommended. […] Samples (200 µL) were collected after 1 and 2 h from the receiver compartment; after the first collection, fresh receiver solution was added to the receiver compartment to maintain the original volume. The concentration of [^3H]-digoxin was quantified using a Tri-Carb 2900TR liquid scintillation analyzer (Packard Bioscience, Meriden, CT, USA). Its concentration in the samples collected during Caco-2 experiments was measured after adding 1 mL of Ultima Gold^TM Cocktail. A to B and B to A transport were evaluated in terms of an apparent permeability coefficient (Papp), calculated using the equation in [80, 81]. […] The efflux ratio (rPapp) was then calculated using the equation [80, 82]:rPapp = (Papp B to A)/(Papp A to B)(2)

[2] = molecular target: T1, ABCB1; experiment: Ex vivo [^3H]-digoxin accumulation in hPCIS prepared from the jejunum
Description: Ex vivo accumulation assays were performed as previously described. Directly after surgery, the resected part of the human jejunum was placed in cold (4 °C) Krebs–Henseleit buffer oxygenated with carbogen gas. The muscle layer was removed, and the remaining mucosa was cut into fragments measuring approximately 5 by 20 mm, which were then embedded in a 3% agarose solution (3% (wt/vol) in 0.9% NaCl, 37 °C). PCIS of approximately 300 µm thickness were cut using a Krumdieck tissue slicer (Alabama R&D, Munford, AL, USA). […] Both incubation steps were conducted in a humidified atmosphere of […] and 5% CO2 at 37 °C [32, 34, 35]. The accumulation of [^3H]-digoxin was stopped after 2 h of incubation by washing the slices twice in the Krebs–Henseleit cold buffer (4 °C). […] The samples were then centrifuged (10 min; 7800 g). Concentrations of [^3H]-digoxin in the supernatant samples (300 µL) were assessed after mixing them with 1.5 mL of Ultima Gold™ via scintillation counting (Tri-Carb 2900TR liquid scintillation analyzer, Packard Bioscience). The pellets obtained during centrifugation were dried overnight at 37 °C and then solubilized in 200 µL of 5 M NaOH for 24 h. Milli-Q water was then added to the samples to achieve a NaOH concentration of 1 M. The protein content was measured using a bicinchoninic acid protein kit (Thermo Fisher Scientific, Waltham, MA, USA). The measured [^3H]-digoxin concentrations were normalized against the protein content.

[3] = molecular target: T1, ABCB1; parameters: confirming the functional expression of ABCB1 in the Caco-2 cells; host or cells: Caco-2; method as in PMID 31481446; settings: Caco-2, cited from earlier work
[4] = molecular target: T1, ABCB1; parameters: confirming the functional expression of ABCB1 in the Caco-2 cells; host or cells: Caco-2; method as in PMID 31481446; settings: hPCIS, cited from earlier work
[5] = Solubility; assay type: physicochemical; settings: incubation medium, 0.1% DMSO
Description: The stock solutions were stored at −20 °C before use. The final concentration of DMSO was 0.1% in all experiments. The final concentrations of EtOH in hPCIS and Caco-2 cells were 0.03% and 0.012%, respectively.

[6] = test system: ABCB1; parameters: method as in PMID 23132334; settings: apparent activity at 100 µM; cited from earlier work
[7] = cited from earlier work
[8] = test system: ABCB1; settings: suggested; cited from earlier work

Molecule: Nc1nc(NC2CC2)c2ncn([C@H]3C=C[C@@H](CO)C3)c2n1 [Abacavir, abacavir]
Digoxin Inhibition (bidirectional transport, in words) ([1]; compound 100 µM): No significant effect
Digoxin Inhibition in human PCIS (in words) ([2]; compound 100 µM, hPCIS): did not induce any detectable inhibition

Molecule: CC(C)CN(C[C@@H](O)[C@H](Cc1ccccc1)NC(=O)O[C@H]1CO[C@H]2OCC[C@H]21)S(=O)(=O)c1ccc(N)cc1 [Darunavir, darunavir]
Digoxin Inhibition in human PCIS (in words) ([2]; compound 50 µM, hPCIS): did not inhibit

Molecule: C[C@H]1O[C@@H](O[C@H]2[C@@H](O)C[C@H](O[C@H]3[C@@H](O)C[C@H](O[C@H]4CC[C@@]5(C)[C@H](CC[C@@H]6[C@@H]5C[C@@H](O)[C@]5(C)[C@@H](C7=CC(=O)OC7)CC[C@]65O)C4)O[C@@H]3C)O[C@@H]2C)C[C@H](O)[C@@H]1O [Digoxin, digoxin]
efflux ratio at 2 h, 6 nM ([1]; human): 9.53 ± 2.22

Molecule: C[C@@H]1CCO[C@H]2Cn3cc(C(=O)NCc4ccc(F)cc4F)c(=O)c(O)c3C(=O)N12 [Dolutegravir, dolutegravir]
Digoxin Inhibition (bidirectional transport, in words) ([1]; compound 10 µM): No significant effect
Digoxin Inhibition in human PCIS (in words) ([2]; compound 10 µM, hPCIS): did not induce any detectable inhibition
Solubility (in words) [5]: limited solubility
Inhibition of digoxin transport in MDCK-ABCB1 cells [6]: weak inhibitor

Molecule: Cc1cc(C#N)cc(C)c1Oc1nc(Nc2ccc(C#N)cc2)nc(N)c1Br [Etravirine, etravirine]
Digoxin Inhibition (bidirectional transport, in words) ([1]; compound 20 µM): YES
Digoxin Inhibition in human PCIS (in words) ([2]; compound 20 µM, hPCIS): did not inhibit
Solubility (in words) [5]: low solubility

Molecule: C=C[C@@H]1C[C@]1(NC(=O)[C@@H]1C[C@@H]2CN1C(=O)[C@H](C(C)(C)C)NC(=O)O[C@@H]1C[C@H]1CCCCCc1nc3ccc(OC)cc3nc1O2)C(=O)NS(=O)(=O)C1CC1.O [Grazoprevir, grazoprevir]
Digoxin Inhibition in human PCIS (in words) [2]: increased [^3H]-digoxin uptake

Molecule: COC(=O)N[C@H](C(=O)N1CC2(CC2)C[C@H]1c1ncc(-c2ccc3c(c2)C(F)(F)c2cc(-c4ccc5nc([C@@H]6[C@H]7CC[C@H](C7)N6C(=O)[C@@H](NC(=O)OC)C(C)C)[nH]c5c4)ccc2-3)[nH]1)C(C)C [Ledipasvir, ledipasvir]
Digoxin Inhibition (bidirectional transport, in words) ([1]; compound 50 µM): YES
Digoxin Inhibition in human PCIS (in words) ([2]; compound 20 µM, hPCIS): no inhibition
Digoxin Inhibition in human PCIS (in words) ([2]; compound 50 µM, hPCIS): no inhibition
Solubility (in words) [5]: low solubility
RHD123 Inhibition (bidirectional transport) ([3]; compound 50 µM): YES

Molecule: Cc1cn([C@H]2C[C@H](N=[N+]=[N-])[C@@H](CO)O2)c(=O)[nH]c1=O [Zidovudine, zidovudine]
Digoxin Inhibition (bidirectional transport, in words) ([1]; compound 100 µM): No significant effect
Digoxin Inhibition in human PCIS (in words) ([2]; compound 100 µM, hPCIS): did not induce any detectable inhibition

Molecule: maraviroc
Digoxin Inhibition (bidirectional transport, in words) ([1]; compound 100 µM): No significant effect
Digoxin Inhibition in human PCIS (in words) ([2]; compound 100 µM, hPCIS): did not induce any detectable inhibition
RHD123 Inhibition (bidirectional transport) ([3]; compound 100 µM): YES

Second part, led by results:

Digoxin Inhibition (bidirectional transport, in words) ([1]; compound 50 µM): YES
Digoxin Inhibition in human PCIS (in words) ([2]; compound 20 µM, hPCIS): did not inhibit
Digoxin Inhibition in human PCIS (in words) ([2]; compound 50 µM, hPCIS): YES
Molecule: COC(=O)N[C@H](C(=O)N[C@@H](Cc1ccccc1)[C@@H](O)CN(Cc1ccc(-c2ccccn2)cc1)NC(=O)[C@@H](NC(=O)OC)C(C)(C)C)C(C)(C)C [Atazanavir, atazanavir]
RHD123 Inhibition (bidirectional transport) ([3]; compound 50 µM): YES
RHD123 Inhibition in human PCIS ([4]; compound 50 µM): YES

Digoxin Inhibition in human PCIS (in words) ([2]; compound 20 µM, hPCIS): YES
Molecule: COC(=O)N[C@H](C(=O)N1CCC[C@H]1c1nc(-c2ccc(-c3ccc(-c4c[nH]c([C@@H]5CCCN5C(=O)[C@@H](NC(=O)OC)C(C)C)n4)cc3)cc2)c[nH]1)C(C)C [Daclatasvir, daclatasvir]
RHD123 Inhibition (bidirectional transport) ([3]; compound 20 µM): YES

Digoxin Inhibition in human PCIS (in words) ([2]; compound 5 µM, hPCIS): no inhibition
Solubility (in words) [5]: low solubility
Molecule: COC(=O)N[C@H](C(=O)N1CCC[C@H]1c1nc(-c2ccc3c(c2)O[C@@H](c2ccccc2)n2c-3cc3cc(-c4c[nH]c([C@@H]5CCCN5C(=O)[C@@H](NC(=O)OC)C(C)C)n4)ccc32)c[nH]1)C(C)C [Elbasvir, elbasvir]
Increase in plasma AUC (intestinal ABCB1 inhibition) ([7]; humans): 11%

Digoxin Inhibition in human PCIS (in words) ([2]; compound 20 µM, hPCIS): did not induce any detectable inhibition
Digoxin Inhibition in human PCIS (in words) ([2]; compound 50 µM, hPCIS): YES
Molecule: Cc1cccc(C)c1OCC(=O)N[C@@H](Cc1ccccc1)[C@@H](O)C[C@H](Cc1ccccc1)NC(=O)[C@H](C(C)C)N1CCCNC1=O [Lopinavir, lopinavir]
RHD123 Inhibition in human PCIS ([4]; compound 50 µM): YES

Digoxin Inhibition (bidirectional transport, in words) ([1]; compound 20 µM): YES
Digoxin Inhibition in human PCIS (in words) ([2]; compound 20 µM, hPCIS): did not inhibit
Molecule: Cc1cc(/C=C/C#N)cc(C)c1Nc1ccnc(Nc2ccc(C#N)cc2)n1 [Rilpivirine, rilpivirine]
Effect on the pharmacokinetics of digoxin or tenofovir DF in vivo ([7]; dose of 25 mg/day): does not significantly affect

Digoxin Inhibition (bidirectional transport, in words) ([1]; compound 20 µM): YES
Digoxin Inhibition in human PCIS (in words) ([2]; compound 5 µM, hPCIS): did not induce any detectable inhibition
Digoxin Inhibition in human PCIS (in words) ([2]; compound 20 µM, hPCIS): YES
Molecule: CC(C)(C)NC(=O)[C@@H]1C[C@@H]2CCCC[C@@H]2CN1C[C@@H](O)[C@H](Cc1ccccc1)NC(=O)[C@H](CC(N)=O)NC(=O)c1ccc2ccccc2n1 [Saquinavir, saquinavir]
RHD123 Inhibition (bidirectional transport) ([3]; compound 20 µM): YES
RHD123 Inhibition in human PCIS ([4]; compound 20 µM): YES

Digoxin Inhibition in human PCIS (in words) [2]: no effect
Molecule: CC(C)OC(=O)[C@H](C)N[P@](=O)(OC[C@H]1O[C@@H](n2ccc(=O)[nH]c2=O)[C@](C)(F)[C@@H]1O)Oc1ccccc1 [Sofosbuvir, sofosbuvir]

Digoxin Inhibition in human PCIS (in words) ([2]; compound 100 µM, hPCIS): did not induce any detectable inhibition
Molecule: CC(C)OC(=O)OCOP(=O)(CO[C@H](C)Cn1cnc2c(N)ncnc21)OCOC(=O)OC(C)C [Tenofovir DF, tenofovir disoproxil fumarate]

Digoxin Inhibition (bidirectional transport, in words) ([1]; compound 5 µM): No significant effect
Solubility (in words) [5]: limited solubility
Molecule: COC[C@H]1C[C@@H](c2ncc(-c3ccc4c(c3)COc3cc5c(ccc6nc([C@@H]7CC[C@H](C)N7C(=O)[C@@H](NC(=O)OC)C(C)C)[nH]c65)cc3-4)[nH]2)N(C(=O)[C@H](NC(=O)OC)c2ccccc2)C1 [Velpatasvir, velpatasvir]
IC50 [8]: ~20.6 µM
Increase of digoxin exposure ([7]; healthy volunteers): 34%
